Measured values taken from patent US11466326B2, “Methods and kit for diagnosing and treating colorectal cancer based on AvrA and Wnt1” (The Board of Trustees of the University of Illinois, priority 2018, dated 2022).
Peptide text beside a SMILES is read from it. * marks the point of attachment. Cbz = O=C(OCc1ccccc1)*

Tests used:
[1] = tested on: Wnt1 protein; test: Wnt1 protein level after Salmonella infection in the presence of a proteasome inhibitor; type: cell-based, human; conditions: in the presence of MG132; compared with control cells without treatment
Procedure: (§1) Western Blot Analysis of Cell Line Proteins. Infected or control cells were rinsed twice in ice-cold HESS and lysed in protein loading buffer (50 mM Tris, pH 6.8, 100 mM dithiothreitol, 2% SDS, 0.1% bromophenol blue, and 10% glycerol). Equal amounts of protein were separated by SDS-polyacrylamide gel electrophoresis, transferred to nitrocellulose membranes, and analyzed by immunoblotting with anti-Wnt1 and anti-β-actin antibodies (Bioworld). The signals were visualized and quantitated using LI-COR Odyssey v3.0 software after probing the membranes with an infrared-conjugated secondary antibody.

[2] = tested on: Wnt1 protein; test: Wnt1 protein level by immunoblot after LPS treatment of human epithelial cells; type: cell-based; conditions: cells treated with LPS, total cell lysates
Procedure: as §1

`CC(C)C[C@@H](C=O)NC(=O)[C@H](CC(C)C)NC(=O)[C@H](CC(C)C)NC(=O)OCc1ccccc1` [MG132] (Cbz-Leu-Leu-Leu-aldehyde) was tested. Which “Wnt1 protein levels after Salmonella infection” value [1] did it give?
Its value is “stabilized”.

For lipopolysaccharide [LPS], which “change in Wnt1 expression (decrease as seen with Salmonella)” value [2] is on record?
Its value is “not observed”.
